Experimental data published in ChEMBL document CHEMBL4017480, “Discovery and optimization of selective FGFR4 inhibitors via scaffold hopping” (Bioorg Med Chem Lett, 2017).
In brackets after ≈: the same amount, converted by molar mass.

Tests used:
[1] = Kinetic solubility of the compound at pH 7.4; type: physicochemical; settings: buffer, read-out: Kinetic_solubility
[2] = biological target: T1, Cytochrome P450 1A2 (Homo sapiens, UniProt P05177); assay: Inhibition of CYP1A2 in human liver microsomes using phenacetin as substrate pretreated for 10 mins followed by substrate addition measured after 10 mins in presence of NADPH by LC-MS/MS method; type: ADME
T1 sequence (P05177 whole entry): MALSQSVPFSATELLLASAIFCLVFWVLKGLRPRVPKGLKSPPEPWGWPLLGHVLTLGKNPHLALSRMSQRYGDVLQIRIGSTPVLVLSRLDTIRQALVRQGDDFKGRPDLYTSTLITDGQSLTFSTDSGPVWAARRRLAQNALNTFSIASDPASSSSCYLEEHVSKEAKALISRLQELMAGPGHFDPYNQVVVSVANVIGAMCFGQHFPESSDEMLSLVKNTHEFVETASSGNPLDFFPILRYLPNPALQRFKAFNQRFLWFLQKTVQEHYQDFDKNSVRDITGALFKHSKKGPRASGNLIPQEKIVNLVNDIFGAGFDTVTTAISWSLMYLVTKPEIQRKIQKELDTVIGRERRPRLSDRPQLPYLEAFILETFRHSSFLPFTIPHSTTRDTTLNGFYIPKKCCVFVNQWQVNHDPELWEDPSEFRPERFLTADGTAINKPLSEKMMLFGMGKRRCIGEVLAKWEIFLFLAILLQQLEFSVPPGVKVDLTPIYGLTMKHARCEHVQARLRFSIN

[3] = biological target: Cytochrome P450 2C19 (Homo sapiens, UniProt P33261); assay: Inhibition of CYP2C19 in human liver microsomes using S-mephenytoin as substrate pretreated for 10 mins followed by substrate addition measured after 10 mins in presence of NADPH by LC-MS/MS method; type: ADME
[4] = Stability in human plasma assessed as compound remaining at 2 uM measured after 2 hrs by LC-MS/MS analysis; type: ADME, cell-free; settings: read-out: Stability
[5] = Stability in mouse plasma assessed as compound remaining at 2 uM measured after 2 hrs by LC-MS/MS analysis; type: ADME, cell-free; settings: read-out: Stability
[6] = Intrinsic clearance in mouse liver microsomes at 1 uM measured after 60 mins in presence of NADPH by LC-MS/MS analysis; type: ADME, microsome; settings: read-out: CLH
[7] = biological target: VEGFR2 (Homo sapiens, UniProt P35968); assay: Inhibition of human VEGFR2 at 10 uM using poly[Glu:Tyr] (4:1) as substrate measured after 120 mins in presence of [gamma33P]ATP by P81 ion exchange chromatographic method relative to control; settings: human VEGFR2 kinase, probe poly[Glu:Tyr] (4:1)
[8] = biological target: T2, Macrophage colony-stimulating factor 1 receptor (Homo sapiens, UniProt P07333); assay: Inhibition of human FMS at 10 uM using poly[Glu:Tyr] (4:1) as substrate measured after 120 mins in presence of [gamma33P]ATP by P81 ion exchange chromatographic method relative to control
[9] = biological target: Epidermal growth factor receptor (Homo sapiens, UniProt P00533); assay: Inhibition of human EGFR using poly[Glu:Tyr] (4:1) as substrate measured after 120 mins in presence of [gamma33P]ATP by P81 ion exchange chromatographic method
[10] = biological target: T2, Macrophage colony-stimulating factor 1 receptor; assay: Inhibition of human FMS using poly[Glu:Tyr] (4:1) as substrate measured after 120 mins in presence of [gamma33P]ATP by P81 ion exchange chromatographic method
[11] = biological target: T3, Tyrosine-protein kinase ITK/TSK (Homo sapiens, UniProt Q08881); assay: Inhibition of human ITK using myelin basic protein as substrate measured after 120 mins in presence of [gamma33P]ATP by P81 ion exchange chromatographic method
T3 sequence (Q08881 whole entry): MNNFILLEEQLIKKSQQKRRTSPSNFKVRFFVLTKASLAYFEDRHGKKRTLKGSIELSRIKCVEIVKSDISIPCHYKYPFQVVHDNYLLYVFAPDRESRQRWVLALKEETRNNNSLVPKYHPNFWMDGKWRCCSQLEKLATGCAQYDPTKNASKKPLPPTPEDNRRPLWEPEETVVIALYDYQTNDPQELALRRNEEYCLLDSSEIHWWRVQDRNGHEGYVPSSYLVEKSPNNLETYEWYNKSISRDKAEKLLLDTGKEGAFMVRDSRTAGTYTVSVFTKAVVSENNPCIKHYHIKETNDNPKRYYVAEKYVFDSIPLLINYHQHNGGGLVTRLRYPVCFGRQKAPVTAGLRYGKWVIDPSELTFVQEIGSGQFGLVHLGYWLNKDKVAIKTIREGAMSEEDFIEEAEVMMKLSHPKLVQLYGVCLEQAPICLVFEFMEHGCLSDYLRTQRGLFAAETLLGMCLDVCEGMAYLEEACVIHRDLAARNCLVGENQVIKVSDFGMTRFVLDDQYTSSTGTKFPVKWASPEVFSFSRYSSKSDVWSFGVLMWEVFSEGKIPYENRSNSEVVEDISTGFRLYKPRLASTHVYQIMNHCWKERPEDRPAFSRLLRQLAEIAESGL

Sequence of Cytochrome P450 2C19 (P33261 whole entry): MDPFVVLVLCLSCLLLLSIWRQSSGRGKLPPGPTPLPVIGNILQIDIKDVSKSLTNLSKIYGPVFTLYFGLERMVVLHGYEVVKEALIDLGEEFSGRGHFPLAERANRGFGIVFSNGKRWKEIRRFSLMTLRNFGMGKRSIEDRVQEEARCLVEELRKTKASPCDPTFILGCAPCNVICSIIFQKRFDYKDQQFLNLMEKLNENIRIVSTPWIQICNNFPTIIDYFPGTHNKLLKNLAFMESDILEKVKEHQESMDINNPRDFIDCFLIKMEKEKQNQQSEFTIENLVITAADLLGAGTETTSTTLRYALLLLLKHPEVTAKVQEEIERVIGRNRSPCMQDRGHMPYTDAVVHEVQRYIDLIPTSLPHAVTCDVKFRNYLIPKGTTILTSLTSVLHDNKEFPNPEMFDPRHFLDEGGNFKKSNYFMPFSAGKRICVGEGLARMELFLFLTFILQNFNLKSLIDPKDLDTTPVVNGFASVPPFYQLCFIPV
T2 sequence (P07333 whole entry): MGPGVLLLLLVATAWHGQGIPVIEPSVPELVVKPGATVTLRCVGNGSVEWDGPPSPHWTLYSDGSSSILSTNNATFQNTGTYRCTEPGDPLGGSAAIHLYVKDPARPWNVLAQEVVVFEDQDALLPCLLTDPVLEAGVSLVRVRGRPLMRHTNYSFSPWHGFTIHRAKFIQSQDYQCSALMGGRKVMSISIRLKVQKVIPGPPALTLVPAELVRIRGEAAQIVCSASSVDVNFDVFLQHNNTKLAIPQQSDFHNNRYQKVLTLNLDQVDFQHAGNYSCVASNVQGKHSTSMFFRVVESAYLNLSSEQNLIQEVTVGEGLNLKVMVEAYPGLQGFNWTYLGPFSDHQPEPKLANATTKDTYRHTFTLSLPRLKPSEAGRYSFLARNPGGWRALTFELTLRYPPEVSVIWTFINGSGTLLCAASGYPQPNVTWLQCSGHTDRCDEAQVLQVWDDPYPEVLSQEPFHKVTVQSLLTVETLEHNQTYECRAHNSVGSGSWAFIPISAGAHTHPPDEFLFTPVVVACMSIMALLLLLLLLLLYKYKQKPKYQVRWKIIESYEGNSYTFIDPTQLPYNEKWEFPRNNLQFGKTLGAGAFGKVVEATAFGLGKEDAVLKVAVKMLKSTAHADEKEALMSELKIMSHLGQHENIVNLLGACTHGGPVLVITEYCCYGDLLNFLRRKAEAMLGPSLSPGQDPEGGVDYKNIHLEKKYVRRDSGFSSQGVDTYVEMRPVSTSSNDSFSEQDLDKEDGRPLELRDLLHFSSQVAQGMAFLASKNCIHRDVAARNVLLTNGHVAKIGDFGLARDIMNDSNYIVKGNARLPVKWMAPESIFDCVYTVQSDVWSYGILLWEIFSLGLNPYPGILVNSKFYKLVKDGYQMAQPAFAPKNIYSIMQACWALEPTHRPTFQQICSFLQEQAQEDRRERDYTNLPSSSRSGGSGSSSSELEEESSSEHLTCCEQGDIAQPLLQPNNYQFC
Sequence of VEGFR2 (P35968 whole entry): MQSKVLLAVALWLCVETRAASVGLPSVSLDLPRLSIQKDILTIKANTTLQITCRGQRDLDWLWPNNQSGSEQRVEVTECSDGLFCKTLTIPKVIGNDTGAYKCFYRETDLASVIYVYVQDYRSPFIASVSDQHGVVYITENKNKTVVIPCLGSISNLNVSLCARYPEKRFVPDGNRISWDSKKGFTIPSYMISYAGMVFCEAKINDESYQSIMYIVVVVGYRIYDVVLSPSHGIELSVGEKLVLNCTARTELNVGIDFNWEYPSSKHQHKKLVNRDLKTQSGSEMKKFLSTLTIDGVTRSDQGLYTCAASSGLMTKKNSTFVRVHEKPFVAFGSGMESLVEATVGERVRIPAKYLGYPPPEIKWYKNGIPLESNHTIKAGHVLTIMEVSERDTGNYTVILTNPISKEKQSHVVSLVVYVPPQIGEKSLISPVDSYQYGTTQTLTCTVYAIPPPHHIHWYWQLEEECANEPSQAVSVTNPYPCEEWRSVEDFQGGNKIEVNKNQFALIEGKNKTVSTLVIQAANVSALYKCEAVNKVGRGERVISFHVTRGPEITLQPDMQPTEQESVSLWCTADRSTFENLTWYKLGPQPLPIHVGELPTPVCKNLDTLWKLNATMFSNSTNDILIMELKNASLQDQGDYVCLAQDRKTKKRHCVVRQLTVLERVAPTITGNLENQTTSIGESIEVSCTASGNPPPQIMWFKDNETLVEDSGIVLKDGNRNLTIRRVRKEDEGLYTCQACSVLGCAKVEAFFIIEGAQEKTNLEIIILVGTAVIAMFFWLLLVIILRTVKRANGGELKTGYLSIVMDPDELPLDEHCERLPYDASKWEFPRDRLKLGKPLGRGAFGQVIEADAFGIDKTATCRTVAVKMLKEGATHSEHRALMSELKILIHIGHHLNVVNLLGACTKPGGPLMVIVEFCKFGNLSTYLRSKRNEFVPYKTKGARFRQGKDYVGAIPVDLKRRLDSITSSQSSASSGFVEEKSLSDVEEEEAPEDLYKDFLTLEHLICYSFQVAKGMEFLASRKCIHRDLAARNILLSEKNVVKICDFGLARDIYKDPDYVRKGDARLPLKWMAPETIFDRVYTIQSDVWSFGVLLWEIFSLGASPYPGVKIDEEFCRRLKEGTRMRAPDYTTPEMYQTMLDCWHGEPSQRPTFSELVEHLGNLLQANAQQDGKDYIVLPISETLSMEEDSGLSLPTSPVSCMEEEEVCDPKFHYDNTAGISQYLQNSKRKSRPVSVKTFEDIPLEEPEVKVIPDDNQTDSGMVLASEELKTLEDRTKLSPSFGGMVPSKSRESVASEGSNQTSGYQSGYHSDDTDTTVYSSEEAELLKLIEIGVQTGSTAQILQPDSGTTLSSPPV
Sequence of Epidermal growth factor receptor (P00533 whole entry): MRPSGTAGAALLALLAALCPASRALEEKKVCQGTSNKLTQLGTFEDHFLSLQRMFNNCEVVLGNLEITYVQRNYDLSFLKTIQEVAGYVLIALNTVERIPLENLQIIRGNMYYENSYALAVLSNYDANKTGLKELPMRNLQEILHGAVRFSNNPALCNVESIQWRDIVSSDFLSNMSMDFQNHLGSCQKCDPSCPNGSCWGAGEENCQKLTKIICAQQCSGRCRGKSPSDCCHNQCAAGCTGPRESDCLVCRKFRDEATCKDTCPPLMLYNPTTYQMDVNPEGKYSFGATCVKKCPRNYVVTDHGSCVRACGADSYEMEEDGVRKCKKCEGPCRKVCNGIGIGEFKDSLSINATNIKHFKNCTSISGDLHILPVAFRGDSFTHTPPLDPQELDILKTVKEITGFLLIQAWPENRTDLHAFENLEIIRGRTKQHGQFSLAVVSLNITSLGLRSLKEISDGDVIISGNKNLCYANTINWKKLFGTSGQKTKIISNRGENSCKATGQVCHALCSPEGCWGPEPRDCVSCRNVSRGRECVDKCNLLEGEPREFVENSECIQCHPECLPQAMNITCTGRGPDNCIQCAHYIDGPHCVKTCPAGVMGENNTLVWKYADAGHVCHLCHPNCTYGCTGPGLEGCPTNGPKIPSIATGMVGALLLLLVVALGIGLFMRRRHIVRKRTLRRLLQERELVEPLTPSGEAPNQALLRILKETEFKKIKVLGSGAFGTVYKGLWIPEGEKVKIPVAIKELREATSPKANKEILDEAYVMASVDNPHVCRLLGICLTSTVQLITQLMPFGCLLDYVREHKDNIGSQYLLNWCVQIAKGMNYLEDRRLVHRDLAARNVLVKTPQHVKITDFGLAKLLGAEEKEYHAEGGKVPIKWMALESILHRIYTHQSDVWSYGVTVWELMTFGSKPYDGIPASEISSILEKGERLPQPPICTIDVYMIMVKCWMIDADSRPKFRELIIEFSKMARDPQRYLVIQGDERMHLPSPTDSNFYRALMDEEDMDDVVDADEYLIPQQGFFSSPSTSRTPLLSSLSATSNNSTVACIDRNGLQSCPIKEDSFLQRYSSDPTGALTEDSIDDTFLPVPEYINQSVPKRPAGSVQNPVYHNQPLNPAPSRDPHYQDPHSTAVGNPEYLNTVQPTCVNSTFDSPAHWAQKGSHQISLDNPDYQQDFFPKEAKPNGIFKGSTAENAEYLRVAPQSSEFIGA

Row | solubility kinetic [1] | IC50 [2] | IC50 [3] | remaining at 2 h, 2 µM [4] | remaining at 2 h, 2 µM [5] | CLint scaled at 1 µM [6] | inhibition at 2 h, 10 µM [7] | inhibition [8] | IC50 [9] | IC50 [10] | IC50 [11] | SMILES
1 | 78 µg/mL (≈ 179 µM) | > 50 µM | 19.8 µM | 92% | 97% | 474 mL/min/kg | 11% | 6% | > 10 µM | > 10 µM | > 10 µM | C=CC(=O)N[C@H]1COC[C@H]1Nc1ncc(OCc2c(F)c(OC)cc(OC)c2F)cn1
2 | 39 µg/mL (≈ 85.4 µM) | > 50 µM | 1.5 µM | 48% | 13% | 9640 mL/min/kg | 19% | 4% | > 10 µM | > 10 µM | > 10 µM | C=CC(=O)Nc1cccc(C)c1Nc1ncc(OCc2c(F)c(OC)cc(OC)c2F)cn1
3 | < 0.5 µg/mL | 15.9 µM | 1.7 µM | 71% | 63% | 97 mL/min/kg | 23% | 78% | > 10 µM | 1.1 µM | > 10 µM | C=CC(=O)Nc1cccc(C)c1Nc1ncc2cc(-c3c(Cl)c(OC)cc(OC)c3Cl)ccc2n1
